Measurements from PubChem BioAssay AID2060506 (Molecular Pharmacology Branch, DTP, NCI, 2025).

System: 598228-144-R-J1-PDC complex spheroid viability
Assay: Anticancer human tumor 598228-144-R-J1-PDC patient-derived serous endometrial adenocarcinoma cell line growth inhibition [GQUAD]
Details: for IC50: curve of first compound; for viability, T/C: stronger effect = lower value; active = viability on the fitted dose curve at most 10% of control; inactive = the rest
Method in brief: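 Multi-cell-type spheroids of tumor cells with HUVEC and mesenchymal stem cells, treated with drug combinations. Concentrations descend in half-log steps from near clinical Cmax, or from 10 microM where Cmax is unknown; viability read-out.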

[1] = second compound 0.0316 µM, first compound 0.0316 µM
[2] = second compound 0.0316 µM, first compound 0.316 µM
[3] = second compound 0.1 µM, first compound 0.0316 µM
[4] = second compound 0.1 µM, first compound 0.316 µM
[5] = second compound 0.316 µM, first compound 0.0316 µM
[6] = second compound 0.316 µM, first compound 0.316 µM
[7] = second compound 1 µM, first compound 0.0316 µM
[8] = second compound 1 µM, first compound 0.316 µM
[9] = second compound 3.16 µM, first compound 0.0316 µM
[10] = second compound 3.16 µM, first compound 0.316 µM
[11] = second compound 10 µM, first compound 0.0316 µM
[12] = second compound 10 µM, first compound 0.316 µM
[13] = second compound 0.0316 µM, first compound 0.1 µM
[14] = second compound 0.0316 µM, first compound 1 µM
[15] = second compound 0.0316 µM, first compound 3.16 µM
[16] = second compound 0.0316 µM, first compound 10 µM
[17] = second compound 0.1 µM, first compound 0.1 µM
[18] = second compound 0.1 µM, first compound 1 µM
[19] = second compound 0.1 µM, first compound 3.16 µM
[20] = second compound 0.1 µM, first compound 10 µM
[21] = second compound 0.316 µM, first compound 0.1 µM
[22] = second compound 0.316 µM, first compound 1 µM
[23] = second compound 0.316 µM, first compound 3.16 µM
[24] = second compound 0.316 µM, first compound 10 µM
[25] = second compound 1 µM, first compound 0.1 µM
[26] = second compound 1 µM, first compound 1 µM
[27] = second compound 1 µM, first compound 3.16 µM
[28] = second compound 1 µM, first compound 10 µM
[29] = second compound 3.16 µM, first compound 0.1 µM
[30] = second compound 3.16 µM, first compound 1 µM
[31] = second compound 3.16 µM, first compound 3.16 µM
[32] = second compound 3.16 µM, first compound 10 µM
[33] = second compound 10 µM, first compound 0.1 µM
[34] = second compound 10 µM, first compound 1 µM
[35] = second compound 10 µM, first compound 3.16 µM
[36] = second compound 10 µM, first compound 10 µM
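Also: spheroids exposed to the agents for one week before reading.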
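For viability, T/C in this document: percent of vehicle DMSO control viability so 100% = untreated growth.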

CCc1c2c(nc3ccc(O)cc13)-c1cc3c(c(=O)n1C2)COC(=O)[C@]3(O)CC + Cc1[nH]c2ccc(F)cc2c1-c1nc2c3cccnc3c3ncccc3c2[nH]1
0.0372 µM: IC50 (second compound 0.316 µM)
active: viability, T/C [10] 8.4%
0.021 µM: IC50 (second compound 0.0316 µM)
0.0139 µM: IC50 (second compound 0.1 µM)
0.00209 µM: IC50 (second compound 10 µM)
0.00257 µM: IC50 (second compound 1 µM)
< 0.000999 µM: IC50 (second compound 3.16 µM)
inactive: viability, T/C (second compound 0.0316 µM, first compound 0.000999 µM) 74.7% | viability, T/C (second compound 0.0316 µM, first compound 0.00316 µM) 73.5% | viability, T/C (second compound 0.0316 µM, first compound 0.00999 µM) 53.8% | viability, T/C [1] 42.9% | viability, T/C (second compound 0.0316 µM, first compound 0.0999 µM) 37.9% | viability, T/C [2] 13.8% | viability, T/C (second compound 0.1 µM, first compound 0.000999 µM) 67% | viability, T/C (second compound 0.1 µM, first compound 0.00316 µM) 67.6% | viability, T/C (second compound 0.1 µM, first compound 0.00999 µM) 55.4% | viability, T/C [3] 34.9% | viability, T/C (second compound 0.1 µM, first compound 0.0999 µM) 31.3% | viability, T/C [4] 19.5% | viability, T/C (second compound 0.316 µM, first compound 0.000999 µM) 75.9% | viability, T/C (second compound 0.316 µM, first compound 0.00316 µM) 62.7% | viability, T/C (second compound 0.316 µM, first compound 0.00999 µM) 66.3% | viability, T/C [5] 53.4% | viability, T/C (second compound 0.316 µM, first compound 0.0999 µM) 34.3% | viability, T/C [6] 21.4% | viability, T/C (second compound 1 µM, first compound 0.000999 µM) 55% | viability, T/C (second compound 1 µM, first compound 0.00316 µM) 47.3% | viability, T/C (second compound 1 µM, first compound 0.00999 µM) 43% | viability, T/C [7] 37.9% | viability, T/C (second compound 1 µM, first compound 0.0999 µM) 27.8% | viability, T/C [8] 17.8% | viability, T/C (second compound 3.16 µM, first compound 0.000999 µM) 40.6% | viability, T/C (second compound 3.16 µM, first compound 0.00316 µM) 36.1% | viability, T/C (second compound 3.16 µM, first compound 0.00999 µM) 29.7% | viability, T/C [9] 29.2% | viability, T/C (second compound 3.16 µM, first compound 0.0999 µM) 13.1% | viability, T/C (second compound 10 µM, first compound 0.000999 µM) 57% | viability, T/C (second compound 10 µM, first compound 0.00316 µM) 45.1% | viability, T/C (second compound 10 µM, first compound 0.00999 µM) 38.8% | viability, T/C [11] 29.7% | viability, T/C (second compound 10 µM, first compound 0.0999 µM) 24.1% | viability, T/C [12] 20.4%

CC1COCCN1c1cc(C2(S(C)(=N)=O)CC2)nc(-c2ccnc3[nH]ccc23)n1 (stereo not drawn) + Cc1cnc(CNC(=O)c2c(=O)c3ccc(N4CCCN(C)CC4)nc3n3c2sc2ccccc23)cn1
3.27 µM: IC50 (second compound 1 µM)
< 0.0316 µM: IC50 (second compound 3.16 µM) | IC50 (second compound 10 µM)
2.91 µM: IC50 (second compound 0.316 µM)
3.71 µM: IC50 (second compound 0.1 µM)
inactive: viability, T/C [1] 79.9% | viability, T/C [13] 93.9% | viability, T/C [2] 71.1% | viability, T/C [14] 62.4% | viability, T/C [15] 87.8% | viability, T/C [16] 36.9% | viability, T/C [3] 74% | viability, T/C [17] 61.2% | viability, T/C [4] 72.7% | viability, T/C [18] 68.7% | viability, T/C [19] 53.1% | viability, T/C [20] 30.2% | viability, T/C [5] 83.1% | viability, T/C [21] 63.8% | viability, T/C [6] 62.8% | viability, T/C [22] 55.9% | viability, T/C [23] 57.8% | viability, T/C [24] 38.1% | viability, T/C [7] 65.2% | viability, T/C [25] 57.2% | viability, T/C [8] 58.7% | viability, T/C [26] 60.9% | viability, T/C [27] 49.3% | viability, T/C [28] 32.4% | viability, T/C [9] 48.8% | viability, T/C [29] 49.9% | viability, T/C [10] 51.8% | viability, T/C [30] 39.9% | viability, T/C [31] 49.2% | viability, T/C [32] 26.4% | viability, T/C [11] 41.7% | viability, T/C [33] 30.1% | viability, T/C [12] 34.1% | viability, T/C [34] 15.1% | viability, T/C [35] 33.7% | viability, T/C [36] 6%
6.99 µM: IC50 (second compound 0.0316 µM)

CCCS(=O)(=O)Nc1ccc(F)c(C(=O)c2c[nH]c3ncc(-c4ccc(Cl)cc4)cc23)c1F + CN(C)c1ccc(Nc2c3ccc(NC(=O)CCN4CCCC4)cc3nc3cc(NC(=O)CCN4CCCC4)ccc23)cc1
5.21 µM: IC50 (second compound 10 µM)
7.65 µM: IC50 (second compound 1 µM)
7.08 µM: IC50 (second compound 3.16 µM)
7.44 µM: IC50 (second compound 0.1 µM)
inactive: viability, T/C [1] 105% | viability, T/C [13] 121% | viability, T/C [2] 93.8% | viability, T/C [14] 107% | viability, T/C [15] 110% | viability, T/C [16] 34.8% | viability, T/C [3] 94.3% | viability, T/C [17] 104% | viability, T/C [4] 111% | viability, T/C [18] 109% | viability, T/C [19] 123% | viability, T/C [20] 29.8% | viability, T/C [5] 122% | viability, T/C [21] 108% | viability, T/C [6] 97.1% | viability, T/C [22] 124% | viability, T/C [23] 93.2% | viability, T/C [24] 34.1% | viability, T/C [7] 89.3% | viability, T/C [25] 99.2% | viability, T/C [8] 110% | viability, T/C [26] 133% | viability, T/C [27] 108% | viability, T/C [28] 32.6% | viability, T/C [9] 94.1% | viability, T/C [29] 95.4% | viability, T/C [10] 80.8% | viability, T/C [30] 118% | viability, T/C [31] 100% | viability, T/C [32] 29.3% | viability, T/C [11] 103% | viability, T/C [33] 75.3% | viability, T/C [12] 100% | viability, T/C [34] 86.8% | viability, T/C [35] 74% | viability, T/C [36] 19.2%
7.87 µM: IC50 (second compound 0.0316 µM)
7.33 µM: IC50 (second compound 0.316 µM)

C=CCn1c(=O)c2cnc(Nc3ccc(N4CCN(C)CC4)cc3)nc2n1-c1cccc(C(C)(C)O)n1 + Cc1[nH]c2ccc(F)cc2c1-c1nc2c3cccnc3c3ncccc3c2[nH]1
inactive: viability, T/C [1] 110% | viability, T/C [13] 102% | viability, T/C [2] 83.2% | viability, T/C [14] 48.3% | viability, T/C [15] 47.1% | viability, T/C [16] 52.8% | viability, T/C [3] 125% | viability, T/C [17] 84.6% | viability, T/C [4] 62.5% | viability, T/C [18] 53.4% | viability, T/C [19] 52.8% | viability, T/C [20] 55.9% | viability, T/C [5] 77.7% | viability, T/C [21] 75.4% | viability, T/C [6] 66.1% | viability, T/C [22] 48.9% | viability, T/C [23] 55.6% | viability, T/C [24] 62.4% | viability, T/C [7] 52% | viability, T/C [25] 59.8% | viability, T/C [8] 46.7% | viability, T/C [26] 48.7% | viability, T/C [27] 55% | viability, T/C [28] 74.5% | viability, T/C [9] 40.1% | viability, T/C [29] 35.1% | viability, T/C [10] 39.9% | viability, T/C [30] 44.6% | viability, T/C [31] 59% | viability, T/C [32] 62.3% | viability, T/C [11] 73.6% | viability, T/C [33] 54.6% | viability, T/C [12] 50.4% | viability, T/C [34] 42.4% | viability, T/C [35] 52.2% | viability, T/C [36] 57.7%
< 0.0316 µM: IC50 (second compound 3.16 µM)
> 10 µM: IC50 (second compound 0.1 µM) | IC50 (second compound 0.316 µM) | IC50 (second compound 1 µM) | IC50 (second compound 10 µM)
0.999 µM: IC50 (second compound 0.0316 µM)
